Data reported in PubChem BioAssay AID1259407 (Chemical Carcinogenesis Research Information System (CCRIS), 2018).
Calls of active or inactive are those of the source. The rule behind the calls is not given here.

Tested on: CCRIS mutagenicity, Ames/micronucleus/aberration tests
Assay: CCRIS mutagenicity studies
Details: Test System: AMES SALMONELLA TYPHIMURIUM
[1] = Strain/Indicator: TA98, Metabolic Activation: NONE, Method: PREINCUBATION
[2] = Strain/Indicator: TA98, Metabolic Activation: NONE, Method: STANDARD PLATE
[3] = Strain/Indicator: TA100, Metabolic Activation: NONE, Method: PREINCUBATION
[4] = Strain/Indicator: TA1535, Metabolic Activation: NONE, Method: PREINCUBATION
[5] = Strain/Indicator: TA100, Metabolic Activation: NONE, Method: STANDARD PLATE

Measured: mutagenic call

COc1c2occc2cc2ccc(=O)oc12
inactive: Strain/Indicator: TA92, Metabolic Activation: NONE, Method: SPOT TEST inactive; negative | Strain/Indicator: TA92, Metabolic Activation: RAT, LIVER, S-9, AROCLOR 1254, Method: SPOT TEST inactive; negative | Strain/Indicator: TA94, Metabolic Activation: NONE, Method: SPOT TEST inactive; negative | Strain/Indicator: TA94, Metabolic Activation: RAT, LIVER, S-9, AROCLOR 1254, Method: SPOT TEST inactive; negative | Strain/Indicator: TA97, Metabolic Activation: NONE, Method: SPOT TEST inactive; negative | Strain/Indicator: TA97, Metabolic Activation: RAT, LIVER, S-9, AROCLOR 1254, Method: SPOT TEST inactive; negative | Strain/Indicator: TA98, Metabolic Activation: HAMSTER, LIVER, S-9 (30%), AROCLOR 1254, Method: PREINCUBATION inactive; negative | [1] inactive; negative | Strain/Indicator: TA98, Metabolic Activation: NONE, Method: SPOT TEST inactive; negative | [2] inactive; negative | Strain/Indicator: TA98, Metabolic Activation: RAT, LIVER, S-9, AROCLOR 1254, Method: SPOT TEST inactive; negative | Strain/Indicator: TA98, Metabolic Activation: RAT, LIVER, S-9, PHENOBARBITAL, Method: STANDARD PLATE inactive; negative | [3] inactive; negative | Strain/Indicator: TA100, Metabolic Activation: NONE, Method: SPOT TEST inactive; negative | Strain/Indicator: TA100, Metabolic Activation: RAT, LIVER, S-9 (10%), AROCLOR 1254, Method: PREINCUBATION inactive; negative | Strain/Indicator: TA100, Metabolic Activation: RAT, LIVER, S-9, AROCLOR 1254, Method: SPOT TEST inactive; negative | Strain/Indicator: TA102, Metabolic Activation: NONE, Method: PREINCUBATION inactive; negative | Strain/Indicator: TA102, Metabolic Activation: NONE, Method: SPOT TEST inactive; negative | Strain/Indicator: TA102, Metabolic Activation: RAT, LIVER, S-9, AROCLOR 1254, Method: SPOT TEST inactive; negative | Strain/Indicator: TA1535, Metabolic Activation: HAMSTER, LIVER, S-9 (30%), AROCLOR 1254, Method: PREINCUBATION inactive; negative | [4] inactive; negative | Strain/Indicator: TA1535, Metabolic Activation: RAT, LIVER, S-9 (30%), AROCLOR 1254, Method: PREINCUBATION inactive; negative
active: Strain/Indicator: TA100, Metabolic Activation: HAMSTER, LIVER, S-9 (5%, 10% OR 30%), AROCLOR 1254, Method: PREINCUBATION active; positive | Strain/Indicator: TA102, Metabolic Activation: HAMSTER, LIVER, S-9 (5%), AROCLOR 1254, Method: PREINCUBATION active; positive | Strain/Indicator: TA102, Metabolic Activation: RAT, LIVER, S-9 (5%), AROCLOR 1254, Method: PREINCUBATION active; positive | Strain/Indicator: TA104, Metabolic Activation: HAMSTER, LIVER, S-9 (30%), AROCLOR 1254, Method: PREINCUBATION active; positive | Strain/Indicator: TA104, Metabolic Activation: RAT, LIVER, S-9 (5% OR 10%), AROCLOR 1254, Method: PREINCUBATION active; positive | Strain/Indicator: TA104, Metabolic Activation: RAT, LIVER, S-9(30%), AROCLOR 1254, Method: PREINCUBATION active; positive

CC(C)COC(=O)c1ccccc1N
inactive: Strain/Indicator: TA98, Metabolic Activation: HAMSTER, LIVER, S-9, AROCLOR 1254 (10%), Method: PREINCUBATION inactive; negative | [1] inactive; negative | Strain/Indicator: TA98, Metabolic Activation: RAT, LIVER, S-9, AROCLOR 1254 (10%), Method: PREINCUBATION inactive; negative | Strain/Indicator: TA100, Metabolic Activation: HAMSTER, LIVER, S-9, AROCLOR 1254 (10%), Method: PREINCUBATION inactive; negative | [3] inactive; negative | Strain/Indicator: TA100, Metabolic Activation: RAT, LIVER, S-9, AROCLOR 1254 (10%), Method: PREINCUBATION inactive; negative | Strain/Indicator: TA1535, Metabolic Activation: HAMSTER, LIVER, S-9, AROCLOR 1254 (10%), Method: PREINCUBATION inactive; negative | [4] inactive; negative | Strain/Indicator: TA1535, Metabolic Activation: RAT, LIVER, S-9, AROCLOR 1254 (10%), Method: PREINCUBATION inactive; negative | Strain/Indicator: TA1537, Metabolic Activation: HAMSTER, LIVER, S-9, AROCLOR 1254 (10%), Method: PREINCUBATION inactive; negative | Strain/Indicator: TA1537, Metabolic Activation: NONE, Method: PREINCUBATION inactive; negative | Strain/Indicator: TA1537, Metabolic Activation: RAT, LIVER, S-9, AROCLOR 1254 (10%), Method: PREINCUBATION inactive; negative

CC1(C)CC[C@]2(C(=O)O)CC[C@]3(C)C(=CC[C@@H]4[C@@]5(C)C[C@H](O)[C@H](O[C@@H]6O[C@H](CO)[C@@H](O)[C@H](O)[C@H]6O)C(C)(C(=O)O)C5CC[C@]43C)[C@H]2C1 (some centres not stated)
inactive: Strain/Indicator: TA97, Metabolic Activation: NONE, Method: STANDARD PLATE inactive; negative | Strain/Indicator: TA97, Metabolic Activation: RAT, LIVER, S-9, AROCLOR 1254, Method: STANDARD PLATE inactive; negative | [2] inactive; negative | Strain/Indicator: TA98, Metabolic Activation: RAT, LIVER, S-9, AROCLOR 1254, Method: STANDARD PLATE inactive; negative | [5] inactive; negative | Strain/Indicator: TA100, Metabolic Activation: RAT, LIVER, S-9, AROCLOR 1254, Method: STANDARD PLATE inactive; negative | Strain/Indicator: TA102, Metabolic Activation: NONE, Method: STANDARD PLATE inactive; negative | Strain/Indicator: TA102, Metabolic Activation: RAT, LIVER, S-9, AROCLOR 1254, Method: STANDARD PLATE inactive; negative

N[C@@H](CSC(F)(F)C(F)(F)C(F)F)C(=O)O
inactive: Strain/Indicator: TA100, Metabolic Activation: RAT, KIDNEY, S-9, AROCLOR 1254, Method: STANDARD PLATE inactive; negative

C1=CC23CCCC2(C=C1)O3 (configuration not stated)
active: [5] active; positive | Strain/Indicator: TM677/8-AZAGUANINE, Metabolic Activation: NONE, Method: STANDARD PLATE active; positive
inactive: [2] inactive; negative
